Experimental data: US20250101039A1, “RIFAMYCIN DERIVATIVES FOR THE TREATMENT OF DISEASES” (priority 2022, published 2025)
In brackets after ≈: the same amount, converted by molar mass. Several values for one entry are separate records, joined by “and”; a condition that tells them apart may be missing. Identical values can stand only once. Like-named read-outs stand apart in the source and are kept apart here.

Assays:
[1] = tested on: H. influenzae (strain ATCC 49247); test: MIC by broth microdilution, H. influenzae; format: cell-based, Hemophilus influenzae; conditions: strain ATCC 49247, Hemophilus test medium broth
[2] = tested on: A. baumannii RpoB L542F; test: microbe, parasite or virus in culture; format: cell-based, Acinetobacter baumannii; conditions: for MIC: Acinetobacter baumannii, RPOBL542F
[3] = tested on: A. baumannii RpoB H535C; test: microbe, parasite or virus in culture; format: cell-based, Acinetobacter baumannii; conditions: for MIC: Acinetobacter baumannii, RPOBH535C
[4] = tested on: Enterococcus faecium (strain NCTC 12204); test: MIC by broth microdilution, E. faecium; format: cell-based; conditions: strain NCTC 12204, cation adjusted Mueller Hinton broth
[5] = tested on: A. baumannii RpoB S583L; test: microbe, parasite or virus in culture; format: cell-based, Acinetobacter baumannii
[6] = tested on: A. baumannii RpoB H535Q; test: microbe, parasite or virus in culture; format: cell-based, Acinetobacter baumannii; conditions: for MIC: Acinetobacter baumannii, RPOBH535Q
[7] = tested on: A. baumannii; test: MIC by broth microdilution, A. baumannii (WT); format: cell-based, Acinetobacter baumannii; conditions: for MIC A. baumannii: RPMI medium supplemented with 10% FCS, 35° C. 20 hours; for A. baumannii MIC, WT: Table 4, RPMI + FCS
[8] = tested on: Enterococcus faecalis (strain ATCC 51575); test: MIC by broth microdilution, E. faecalis; format: cell-based; conditions: strain ATCC 51575, cation adjusted Mueller Hinton broth
[9] = tested on: A. baumannii RpoB N527D; test: microbe, parasite or virus in culture; format: cell-based, Acinetobacter baumannii
[10] = tested on: A. baumannii RpoB H535L; test: microbe, parasite or virus in culture; format: cell-based, Acinetobacter baumannii; conditions: for MIC: Acinetobacter baumannii, RPOBH535L
[11] = tested on: Staphylococcus epidermidis (strain ATCC 12228); test: MIC by broth microdilution, S. epidermidis; format: cell-based; conditions: strain ATCC 12228, cation adjusted Mueller Hinton broth
[12] = tested on: A. baumannii RpoB I581M; test: microbe, parasite or virus in culture; format: cell-based, Acinetobacter baumannii
[13] = tested on: M. abscessus (strain ATCC 19977); test: MIC by broth microdilution, M. abscessus; format: cell-based, Mycobacterium abscessus; conditions: strain ATCC 19977, Middlebrook 7H9 broth + ADC
[14] = tested on: M. smegmatis (strain ATCC 700084); test: MIC, M. smegmatis (BacTiter-Glo); format: cell-based, Mycobacterium smegmatis; conditions: strain ATCC 700084, Middlebrook 7H9 + ADC, 90% growth inhibition, 20 hours
[15] = tested on: A. baumannii RpoB H535Q/S521T; test: microbe, parasite or virus in culture; format: cell-based, Acinetobacter baumannii
[16] = tested on: S. pyogenes (strain IHMA 1117021); test: MIC by broth microdilution, S. pyogenes; format: cell-based, Streptococcus pyogenes; conditions: strain IHMA 1117021, cation adjusted Mueller Hinton broth + 5% laked horse blood
[17] = tested on: S. pneumoniae (strain ATCC 49619); test: MIC by broth microdilution, S. pneumoniae; format: cell-based, Streptococcus pneumoniae; conditions: strain ATCC 49619, cation adjusted Mueller Hinton broth + 5% laked horse blood
[18] = tested on: M. tuberculosis (H37Rv strain ATCC 27294); format: cell-based, Mycobacterium tuberculosis
[19] = tested on: S. aureus; test: MIC by broth microdilution, S. aureus; format: cell-based, Staphylococcus aureus; conditions: cation adjusted Mueller Hinton broth, 35° C. 20 hours

CO[C@H]1/C=C/O[C@@]2(C)Oc3c(C)c(O)c4c(O)c(c(/C=N/N5CCN(C)CC5)c(O)c4c3C2=O)NC(=O)/C(C)=C\C=C\[C@H](C)[C@H](O)[C@@H](C)[C@@H](O)[C@@H](C)[C@H](OC(C)=O)[C@@H]1C [Rifampicin, reference compound]
MIC ([1]; Haemophilus influenzae, ATCC49247, read-out: MIC H. influenzae): 250 µg/mL (≈ 304 µM)
MIC ([2]; read-out: MIC, RpoB mutation L542F, Table 5 part 3 c2, 1st L542F isolate, cation-adjusted Mueller Hinton broth (rifampicin)): 8 µg/mL (≈ 9.72 µM)
MIC ([2]; read-out: MIC, RpoB mutation L542F, Table 5 part 3 c3, 2nd L542F isolate, cation-adjusted Mueller Hinton broth (rifampicin)): 8 µg/mL (≈ 9.72 µM)
MIC ([3]; read-out: A. baumannii MIC, RpoB H535C, Table 4, cation-adjusted Mueller Hinton broth (rifampicin)): > 32 µg/mL
MIC ([3]; read-out: MIC, RpoB mutation H535C, Table 5 part 2 c2, 2nd H535C isolate, cation-adjusted Mueller Hinton broth (rifampicin)): > 32 µg/mL
MIC ([3]; read-out: MIC, RpoB mutation H535C, Table 5 part 2 c3, 3rd H535C isolate, cation-adjusted Mueller Hinton broth (rifampicin)): > 32 µg/mL
MIC ([3]; read-out: MIC, RpoB mutation H535C, Table 5 part 2 c4, 4th H535C isolate, cation-adjusted Mueller Hinton broth (rifampicin)): > 32 µg/mL
MIC ([4]; Enterococcus faecium, NCTC12204, read-out: MIC E. faecium): 500 µg/mL (≈ 608 µM)
MIC ([5]; Acinetobacter baumannii, RPOBS583L, read-out: MIC, RpoB mutation S583L): > 32 µg/mL
MIC ([6]; read-out: A. baumannii MIC, RpoB H535Q, Table 4, cation-adjusted Mueller Hinton broth (rifampicin)): > 32 µg/mL
MIC ([6]; read-out: MIC, RpoB mutation H535Q, Table 5 part 1 c2, 1st H535Q isolate, cation-adjusted Mueller Hinton broth (rifampicin)): > 32 µg/mL
MIC ([6]; read-out: MIC, RpoB mutation H535Q, Table 5 part 1 c3, 2nd H535Q isolate, cation-adjusted Mueller Hinton broth (rifampicin)): > 32 µg/mL
MIC ([6]; read-out: MIC, RpoB mutation H535Q, Table 5 part 1 c4, 3rd H535Q isolate, cation-adjusted Mueller Hinton broth (rifampicin)): > 32 µg/mL
MIC ([7]; Acinetobacter baumannii, Table 4, cation-adjusted Mueller Hinton broth (rifampicin), read-out: A. baumannii MIC, WT): 8 µg/mL (≈ 9.72 µM)
MIC ([8]; Enterococcus faecalis, ATCC51575, read-out: MIC E. faecalis): 1000 µg/mL (≈ 1220 µM)
MIC ([9]; Acinetobacter baumannii, RPOBN527D, read-out: MIC, RpoB mutation N527D): > 32 µg/mL
MIC ([10]; read-out: A. baumannii MIC, RpoB H535L, Table 4, cation-adjusted Mueller Hinton broth (rifampicin)): > 32 µg/mL
MIC ([10]; read-out: MIC, RpoB mutation H535L, Table 5 part 2 c5, 1st H535L isolate, cation-adjusted Mueller Hinton broth (rifampicin)): > 32 µg/mL
MIC ([10]; read-out: MIC, RpoB mutation H535L, Table 5 part 2 c6, 2nd H535L isolate, cation-adjusted Mueller Hinton broth (rifampicin)): > 32 µg/mL
MIC ([10]; read-out: MIC, RpoB mutation H535L, Table 5 part 3 c1, 3rd H535L isolate, cation-adjusted Mueller Hinton broth (rifampicin)): > 32 µg/mL
MIC ([10]; read-out: MIC, RpoB mutation H535L, Table 5 part 3 c6, 4th H535L isolate, cation-adjusted Mueller Hinton broth (rifampicin)): > 32 µg/mL
MIC ([10]; read-out: MIC, RpoB mutation H535L, Table 5 part 3 c7, 5th H535L isolate, cation-adjusted Mueller Hinton broth (rifampicin)): > 32 µg/mL
MIC ([11]; Staphylococcus epidermidis, ATCC12228, read-out: MIC S. epidermidis): ≤ 2 µg/mL
MIC ([12]; Acinetobacter baumannii, RPOBI581M, read-out: MIC, RpoB mutation I581M): > 32 µg/mL

CO[C@H]1/C=C/O[C@@]2(C)Oc3c(C)c(O)c4c(c3C2=O)C2=NC3(NC2=C(NC(=O)/C(C)=C\C=C\[C@H](C)[C@H](O)[C@@H](C)[C@@H](O)[C@@H](C)[C@H](OC(C)=O)[C@@H]1C)C4=O)C1CC2CC3CN(C2)C1 (some centres unmarked) [Compound 3B]
MIC M. abscessus [13]: 8 µg/mL
MIC M. smegmatis [14]: 0.65 µg/mL
MIC H. influenzae [1]: 0.125 µg/mL (≈ 0.148 µM)
A. baumannii MIC, RpoB H535C [3]: ≤2 ng/mL
MIC E. faecium [4]: 0.03 µg/mL (≈ 0.0356 µM)
MIC, RpoB mutation S583L [5]: ≤2 ng/mL
A. baumannii MIC, RpoB H535Q [6]: ≤2 ng/mL
MIC A. baumannii [7]: < 2 ng/mL
A. baumannii MIC, WT [7]: ≤2 ng/mL
MIC E. faecalis [8]: 0.5 µg/mL (≈ 0.593 µM)
MIC, RpoB mutation H535Q/S521T [15]: 1 mg/L and 0.5 mg/L
MIC, RpoB mutation N527D [9]: ≤2 ng/mL
A. baumannii MIC, RpoB H535L [10]: 0.016 mg/L
MIC S. pyogenes [16]: < 2 ng/mL
MIC S. epidermidis [11]: < 2 ng/mL
MIC S. pneumoniae [17]: < 2 ng/mL
MIC, RpoB mutation I581M [12]: ≤2 ng/mL
MIC M. tuberculosis [18]: 0.01 µg/mL (≈ 0.0119 µM)

CO[C@H]1/C=C/O[C@@]2(C)Oc3c(C)c(O)c4c(c3C2=O)C2=NC3(CC5CCC(C3)N5)NC2=C(NC(=O)/C(C)=C\C=C\[C@H](C)[C@H](O)[C@@H](C)[C@@H](O)[C@@H](C)[C@H](OC(C)=O)[C@@H]1C)C4=O (single isomer, unassigned) [Compound 12B]
MIC M. abscessus [13]: 8 µg/mL
MIC M. smegmatis [14]: 0.32 µg/mL
MIC H. influenzae [1]: 0.06 µg/mL (≈ 0.0734 µM)
MIC, RpoB mutation L542F [2]: 2 ng/mL (≈ 0.00245 µM)
A. baumannii MIC, RpoB H535C ([3]; Table 4, RPMI + FCS): ≤2 ng/mL
MIC E. faecium [4]: 0.03 µg/mL (≈ 0.0367 µM)
MIC, RpoB mutation S583L ([5]; Table 5 part 3 c4, clinical isolate, RPMI + 10% FCS): 4 ng/mL
A. baumannii MIC, RpoB H535Q ([6]; Table 4, RPMI + FCS): ≤2 ng/mL
MIC S. aureus [19]: 0.016 µg/mL (≈ 0.0196 µM)
MIC A. baumannii [7]: < 2 ng/mL
A. baumannii MIC, WT [7]: ≤2 ng/mL
MIC E. faecalis [8]: 0.125 µg/mL (≈ 0.153 µM)
MIC, RpoB mutation H535Q/S521T [15]: 0.5 mg/L and 1 mg/L
MIC, RpoB mutation N527D ([9]; Table 5 part 3 c5, clinical isolate, RPMI + 10% FCS): ≤2 ng/mL
A. baumannii MIC, RpoB H535L ([10]; Table 4, RPMI + FCS): 0.03 mg/L
MIC S. pyogenes [16]: < 2 ng/mL
MIC S. epidermidis [11]: < 2 ng/mL
MIC S. pneumoniae [17]: < 2 ng/mL
MIC, RpoB mutation I581M ([12]; Table 5 part 1 c1, clinical isolate, RPMI + 10% FCS): 4 ng/mL
MIC M. tuberculosis [18]: 0.01 µg/mL (≈ 0.0122 µM)
